Data reported in publication PMC11187126, “Structure and dynamics of the pyroglutamylated RF-amide peptide QRFP receptor GPR103” (Nature Communications, 2024).
Where two headings read alike, the source gives them in different places. No end group written: not given here.

Target: T1, GPR103 C285^6.47A (Homo sapiens, UniProt Q96P65, C285A)
T1 construct: we used human full-length QRFPR-encoding plasmids; expressed in transfected cells; host or cells: HEK293 cells (HEK293A in the flow cytometry section), pCAGGS vector
T1 sequence (Q96P65 1-431 C285A): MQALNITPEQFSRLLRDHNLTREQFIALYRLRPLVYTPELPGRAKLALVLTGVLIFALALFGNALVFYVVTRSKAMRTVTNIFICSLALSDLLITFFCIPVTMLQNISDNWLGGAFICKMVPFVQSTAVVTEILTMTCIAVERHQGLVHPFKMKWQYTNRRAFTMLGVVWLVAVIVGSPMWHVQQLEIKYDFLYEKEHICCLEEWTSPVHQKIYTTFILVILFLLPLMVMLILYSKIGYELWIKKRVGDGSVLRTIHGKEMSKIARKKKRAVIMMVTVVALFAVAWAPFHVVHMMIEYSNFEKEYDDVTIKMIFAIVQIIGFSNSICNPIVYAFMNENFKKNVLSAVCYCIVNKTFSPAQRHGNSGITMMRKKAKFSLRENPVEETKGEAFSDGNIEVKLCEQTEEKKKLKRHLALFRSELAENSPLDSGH
Test: TGFα shedding assay; Exp. level WT (1:20)
Type: cell-based

With TSGPLGNLAEELNGYSRKKGGFSFRF-NH2 [QRFP26] the Emax (Exp. #1) was 81.15 % WT, the Emax (Exp. #2) was 80.43 % WT and the Emax (Exp. #3) was 87.98 % WT. The Emax (mean, read-out: Emax) was 83.2%, the EC50 (n = 3) was 14.1 nM and the Emax (n = 3, read-out: Emax) was 86.7 ± 2%.
